This test deals with BNP in heart tissue. In words: BNP mRNA and protein levels in cardiac biopsies of STZ-treated pigs (real-time PCR, RIA). The class given is in vivo, pig. As to conditions: streptozotocin (STZ)-treated pigs; 3.3 μg/kg s.c. once daily for 4 weeks; right atrial, left atrial and left ventricular biopsies; FIG. 1. The protocol: Hearts from 12 streptozotocin (STZ)-treated pigs were collected. The pigs were treated with STZ 2 weeks prior to dosing with either the GLP-1 derivative Arg^34, Lys^26(N^ε-(γ-Glu(N^α-hexadecanoyl)))-GLP-1(7-37) (NN2211) for 4 weeks, dose 3.3 μg/kg s.c. once daily, or vehicle. STZ-treated pigs were either hyperglycemic or glucose intolerant and had impaired insulin secretion upon oral glucose tolerance tests. BNP mRNA and protein levels in cardiac biopsies were measured with real-time PCR and RIA assays, respectively. BNP mRNA levels were normalized by β-actin mRNA levels.
BNP mRNA levels were similar in right atrial (RA), left atrial (LA) and in left ventricular (LV) biopsies from vehicle treated diabetic pigs (−GLP).
In general terms: Quantitative PCR measures a nucleic acid by following its amplification.

In the case of `CCCCCCCCCCCCCCCC(=O)N[C@@H](CCC(=O)NCCCC[C@H](NC(=O)[C@H](C)NC(=O)[C@H](C)NC(=O)[C@H](CCC(N)=O)NC(=O)CNC(=O)[C@H](CCC(=O)O)NC(=O)[C@H](CC(C)C)NC(=O)[C@H](Cc1ccc(O)cc1)NC(=O)[C@H](CO)NC(=O)[C@H](CO)NC(=O)[C@@H](NC(=O)[C@H](CC(=O)O)NC(=O)[C@H](CO)NC(=O)[C@@H](NC(=O)[C@H](Cc1ccccc1)NC(=O)[C@@H](NC(=O)CNC(=O)[C@H](CCC(=O)O)NC(=O)[C@H](C)NC(=O)[C@@H](N)Cc1cnc[nH]1)[C@@H](C)O)[C@@H](C)O)C(C)C)C(=O)N[C@@H](CCC(=O)O)C(=O)N[C@@H](Cc1ccccc1)C(=O)N[C@H](C(=O)N[C@@H](C)C(=O)N[C@@H](Cc1c[nH]c2ccccc12)C(=O)N[C@@H](CC(C)C)C(=O)N[C@H](C(=O)N[C@@H](CCCNC(=N)N)C(=O)NCC(=O)N[C@@H](CCCNC(=N)N)C(=O)NCC(=O)O)C(C)C)[C@@H](C)CC)C(=O)O` [NN2211, Arg^34, Lys^26(N^ε-(γ-Glu(N^α-hexadecanoyl)))-GLP-1(7-37)], the “levels of BNP (BNP mRNA normalized by β-actin mRNA) in cardiac biopsies vs vehicle” value is reported as “significantly lower”.

For the origin of these results see patent US20140206615A1, “GLP-1 AGONIST AND CARDIOVASCULAR COMPLICATIONS” (NOVO NORDISK A/S, priority 2002, published 2014).
